Measured values from paper PMC10614203, “Synthesis, Structure–Activity Relationships, Radiofluorination, and Biological Evaluation of [^18F]RM365, a Novel Radioligand for Imaging the Human Cannabinoid Receptor Type 2 (CB2R) in the Brain with PET” (Journal of Medicinal Chemistry, 2023).

Experiments:
[1] = In vivo metabolism, quantification of radiometabolites by radio-HPLC in brain and plasma; design: species or system mouse; conditions: female CD-1 mice, 30 min p.i., i.v.
Method: The good in vitro results obtained for [^18F]RM365 justified its further evaluation in vivo, and we proceeded with the investigation of radioligand metabolism in mouse. The brain as well as blood samples were obtained from two female CD-1 mice 30 min after intravenous administration of [^18F]RM365. About 90% of the radioactivity detected in the brain samples accounted for intact radioligand (Figure 8), while in blood plasma, the fraction of the intact radioligand represented only 55% of the detected radioactivity (Figure 8B). Accordingly, the absence of a significant fraction of radiometabolites of [^18F]RM365 in the brain indicates the suitability of this radioligand for neuroimaging.
Figure 8 In vivo metabolism of [^18F]RM365. […]
The samples were further processed for subsequent radio-chromatographic analyses. […] The activities of supernatants and precipitates were measured in an γ-counter (1480 WIZARD, Fa. PerkinElmer), and the extraction efficiencies were calculated as the ratio of the radioactivity in the supernatant to the radioactivity in the original sample (supernatant + precipitate). The supernatants from both extractions were combined, concentrated at 70 °C under an argon stream up to a remaining volume of 100 μL, and subsequently analyzed by analytical radio-HPLC with a gradient system as applied in Section 5.2.2.

[2] = Lipophilicity log D7.4, shake flask method, n-octanol/PBS; assay type: physicochemical; conditions: n-octanol/PBS 0.01 M, pH 7.4, room temperature
Method: The most efficient protocol for the manual radiosynthesis of [^18F]RM365 was transferred to an automated synthesis module (Elysia-Raytest radiosynthesizer). For the biological evaluation, [^18F]RM365 was obtained with a moderate radiochemical yield of about 5% and high radiochemical purities (>99%), molar activity of about 80 GBq/μmol in a total synthesis time of 60 min (n = 6) starting with activities ranging from 8 to 13 GBq. […] RP and chiral HPLC analysis of the final product coeluted with the corresponding reference compound RM365 confirmed the identity and enantiopurity of the radioligand (Figure 5B). A log D7.4 of 3.0 ± 0.1 was determined by the shake flask method.[80],[81]
Log D7.4 of [^18F]RM365 was experimentally determined in n-octanol/PBS, 0.01 M, pH 7.4, at room temperature by the shake flask method. The measurement was performed twice in triplicate.[87]

rat CB2R = biological target: T1, rat CB2R (Rattus norvegicus, UniProt Q9QZN9); test: Homologous competition binding of [18F]RM365 / RM365 on rat spleen homogenate
T1 construct: one spleen from a female SPRD rat expressing high levels of the receptor in the leukocytes; from tissue; host or cells: rat spleen (female SPRD rat; autoradiography also described with male F433 rats)
T1 sequence (Q9QZN9 1-360): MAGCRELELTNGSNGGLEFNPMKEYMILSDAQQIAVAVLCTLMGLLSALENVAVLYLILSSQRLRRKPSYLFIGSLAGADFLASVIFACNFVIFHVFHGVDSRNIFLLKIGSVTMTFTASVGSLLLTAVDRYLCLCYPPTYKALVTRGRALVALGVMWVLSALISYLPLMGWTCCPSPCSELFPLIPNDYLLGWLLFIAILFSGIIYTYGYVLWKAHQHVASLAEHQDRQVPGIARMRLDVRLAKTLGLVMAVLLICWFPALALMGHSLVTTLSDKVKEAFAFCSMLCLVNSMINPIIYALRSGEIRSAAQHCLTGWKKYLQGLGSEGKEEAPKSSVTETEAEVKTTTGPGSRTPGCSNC
Excerpt: To complement the indirect determination of the affinity of RM365 toward the CB2R in vitro, we performed a direct binding study with the radiofluorinated ligand using preparations of CHO cells stably transfected with the cloned human receptor and one spleen from a female SPRD rat expressing high levels of the receptor in the leukocytes.[12] The results of the homologous competition study shown in Figure 6 confirm the good affinity of [^18F]RM365 toward the human CB2R with a KD value of about 2 nM. […] Furthermore, the measurement signal obtained from the incubation of [^18F]RM365 with the homogenate of rat spleen was in the range of the values obtained for the nonspecific binding of the radioligand toward the preparation of CB2R-transfected CHO cells. We conclude that RM365 binds the rat CB2R with lower affinity than the human CB2R but expect no significant interactions of the radioligand with nonspecific binding sites.[82] […]
The nonspecific binding of the respective radioligand was determined by coincubation with CP55,940 (final concentration 10^–5 M). The normalized values of bound activity (% specific binding) were calculated and plotted vs the logarithm of the concentration of the respective test compound. […]

Compound: CC1(C)Cc2ccc(C#N)cc2[C@@H]1NC(=O)c1cc2cc([18F])ccc2[nH]1 [[^18F]RM365]
- intact radioligand, fraction of radioactivity in blood plasma [1]: 55%
- logD [2]: 3 ± 0.1
- Kd (rat CB2R; rat spleen homogenate, read-out: KD for the rCB2R): > 10 µM
- specific binding to rat spleen homogenates, in words (rat CB2R; spleen of a female SPRD rat): no detectable interaction
